Assay results: PubChem BioAssay AID1919015 (Molecular Pharmacology Branch, DTP, NCI, 2023)

System: OVCAR-5 complex spheroids with HUVEC/MSC, viability, % test/control
Assay: Anticancer human tumor OVCAR-5 cell line growth inhibition [AhR];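 note: spheroids exposed to compounds for 7 days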;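 for viability, T/C: 100% = DMSO vehicle control wells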
Details: for IC50: curve of first compound; for viability, T/C: stronger effect = lower value
Procedure, shortened: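 Agents were dosed in half-log steps down from roughly clinical Cmax, or from 10 microM where Cmax was unknown, alone and with AhR antagonists. Read-out: percent test/control growth of tumor spheroids containing HUVEC and MSC stromal cells.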

[1] = second compound 0.1 µM, first compound 0.0316 µM
[2] = second compound 0.1 µM, first compound 0.1 µM
[3] = second compound 0.1 µM, first compound 0.316 µM
[4] = second compound 0.1 µM, first compound 1 µM
[5] = second compound 0.1 µM, first compound 3.16 µM
[6] = second compound 0.1 µM, first compound 10 µM
[7] = second compound 0.316 µM, first compound 0.0316 µM
[8] = second compound 0.316 µM, first compound 0.1 µM
[9] = second compound 0.316 µM, first compound 0.316 µM
[10] = second compound 0.316 µM, first compound 1 µM
[11] = second compound 0.316 µM, first compound 3.16 µM
[12] = second compound 0.316 µM, first compound 10 µM
[13] = second compound 1 µM, first compound 0.0316 µM
[14] = second compound 1 µM, first compound 0.1 µM
[15] = second compound 1 µM, first compound 0.316 µM
[16] = second compound 1 µM, first compound 1 µM
[17] = second compound 1 µM, first compound 3.16 µM
[18] = second compound 1 µM, first compound 10 µM
[19] = second compound 3.16 µM, first compound 0.0316 µM
[20] = second compound 3.16 µM, first compound 0.1 µM
[21] = second compound 3.16 µM, first compound 0.316 µM
[22] = second compound 3.16 µM, first compound 1 µM
[23] = second compound 3.16 µM, first compound 3.16 µM
[24] = second compound 3.16 µM, first compound 10 µM
[25] = second compound 10 µM, first compound 0.0316 µM
[26] = second compound 10 µM, first compound 0.1 µM
[27] = second compound 10 µM, first compound 0.316 µM
[28] = second compound 10 µM, first compound 1 µM
[29] = second compound 10 µM, first compound 3.16 µM
[30] = second compound 10 µM, first compound 10 µM

| Structure (SMILES) | IC50 (second compound 0.1 µM) | IC50 (second compound 0.316 µM) | IC50 (second compound 1 µM) | IC50 (second compound 3.16 µM) | IC50 (second compound 10 µM) | viability, T/C [1] | viability, T/C [2] | viability, T/C [3] | viability, T/C [4] | viability, T/C [5] | viability, T/C [6] | viability, T/C [7] | viability, T/C [8] | viability, T/C [9] | viability, T/C [10] | viability, T/C [11] | viability, T/C [12] | viability, T/C [13] | viability, T/C [14] | viability, T/C [15] | also measured |
| --- | --- | --- | --- | --- | --- | --- | --- | --- | --- | --- | --- | --- | --- | --- | --- | --- | --- | --- | --- | --- | --- |
| Nc1ccn(C2OC(CO)C(O)C2(F)F)c(=O)n1 (stereo not given) + Cc1cncc(-c2nc(NCCc3c[nH]c4ccccc34)c3ncn(C(C)C)c3n2)c1 | < 31.6 nM | < 31.6 nM | < 31.6 nM | < 31.6 nM | < 31.6 nM | 33.2% | 30.1% | 31.2% | 33% | 33% | 31.6% | 33.6% | 30.9% | 32% | 32% | 32.2% | 31.6% | 33.6% | 31.5% | 34.1% | viability, T/C [16]: 33%; viability, T/C [17]: 34.9%; viability, T/C [18]: 32%; viability, T/C [19]: 33.6%; viability, T/C [20]: 33.4%; viability, T/C [21]: 32%; viability, T/C [22]: 32.5%; viability, T/C [23]: 35%; viability, T/C [24]: 34.4%; viability, T/C [25]: 3.2%; viability, T/C [26]: 3.6%; viability, T/C [27]: 4.58%; viability, T/C [28]: 4.3%; viability, T/C [29]: 6.36%; viability, T/C [30]: 9.03% |
| O=C(C=Cc1cccc(S(=O)(=O)Nc2ccccc2)c1)NO + Cc1cncc(-c2nc(NCCc3c[nH]c4ccccc34)c3ncn(C(C)C)c3n2)c1 | 1130 nM | 1010 nM | 1130 nM | 891 nM | < 31.6 nM | 95.8% | 87.4% | 70.6% | 52.4% | 30.4% | 7.81% | 95.1% | 88.1% | 70.2% | 52.1% | 24.9% | 6.95% | 87.9% | 88.3% | 70% | viability, T/C [16]: 55.3%; viability, T/C [17]: 25.1%; viability, T/C [18]: 6.35%; viability, T/C [19]: 79.4%; viability, T/C [20]: 75.8%; viability, T/C [21]: 66%; viability, T/C [22]: 49%; viability, T/C [23]: 23.1%; viability, T/C [24]: 5.52%; viability, T/C [25]: 23.3%; viability, T/C [26]: 26.7%; viability, T/C [27]: 23.4%; viability, T/C [28]: 24.9%; viability, T/C [29]: 16.4%; viability, T/C [30]: 2.82% |
| O=C(c1cc(Cc2n[nH]c(=O)c3ccccc23)ccc1F)N1CCN(C(=O)C2CC2)CC1 + Cc1cncc(-c2nc(NCCc3c[nH]c4ccccc34)c3ncn(C(C)C)c3n2)c1 | > 10000 nM | > 10000 nM | > 10000 nM | > 10000 nM | < 31.6 nM | 93.8% | 97.7% | 93.7% | 87.5% | 91.5% | 86.8% | 93.9% | 98.7% | 95.4% | 89.9% | 84.3% | 83.7% | 84.5% | 87.7% | 91.6% | viability, T/C [16]: 87%; viability, T/C [17]: 86.2%; viability, T/C [18]: 77.3%; viability, T/C [19]: 78.2%; viability, T/C [20]: 77.8%; viability, T/C [21]: 75.2%; viability, T/C [22]: 73.2%; viability, T/C [23]: 71.8%; viability, T/C [24]: 64.8%; viability, T/C [25]: 14.8%; viability, T/C [26]: 12.9%; viability, T/C [27]: 15%; viability, T/C [28]: 12%; viability, T/C [29]: 13.7%; viability, T/C [30]: 13.1% |
